From patent US9284325B2, “Spectinamides as anti-tuberculosis agents” (UNIVERSITY OF TENNESSEE RESEARCH FOUNDATION, priority 2009, dated 2016)
≈ marks a conversion by molar mass, not a printed value. Where a name gives a salt, the structure may show the parent alone. Read-outs that look alike come from different tables or passages of the source.

Columns and labels:
M. tuberculosis H37Rv = assay: MIC determination by microbroth dilution, anti-tuberculosis activity; assay type: cell-based, Mycobacterium tuberculosis
[1] = test system: S. aureus 8325 or strain ATCC 29213; assay: MIC determination by microbroth dilution; assay type: cell-based, Staphylococcus aureus; conditions: S. aureus 8325 or strain ATCC 29213 (for 1471-1544); for MIC: Staphylococcus aureus, ATCC29213
[2] = test system: Strep. pyogenes ATCC 700294; assay: MIC determination by microbroth dilution; assay type: cell-based, Streptococcus pyogenes; conditions: for MIC: Streptococcus pyogenes, ATCC700294, read-out: MIC S. pyogenes
[3] = test system: Strep. pneumoniae DAW27 or strain R6; assay: MIC determination by microbroth dilution; assay type: cell-based, Streptococcus pneumoniae; conditions: Strep. pneumoniae DAW27 or strain R6 (for 1443-1544); for MIC: Streptococcus pneumoniae, read-out: MIC S. pneumoniae
E. faecalis ATCC 33186 = assay: MIC determination by microbroth dilution; assay type: cell-based, Enterococcus faecalis; conditions: for MIC: Enterococcus faecalis, ATCC33186
B. anthracis Sterne 34F2 = assay: microbe, parasite or virus in culture; assay type: cell-based, Bacillus anthracis; conditions: for MIC: Bacillus anthracis, STERNE34F2, read-out: MIC B. anthracis 34F2
[4] = test system: Burkholderia cepacia ATCC 25416; assay: MIC determination by microbroth dilution; assay type: cell-based; conditions: for MIC: ATCC25416, read-out: MIC B. cepcia
[5] = test system: Proteus mirabilis ATCC 25933; assay: MIC determination by microbroth dilution; assay type: cell-based; conditions: for MIC: ATCC25933
[6] = test system: Proteus vulgaris ATCC 33420; assay: MIC determination by microbroth dilution; assay type: cell-based; conditions: for MIC: ATCC33420
[7] = test system: Klebsiella pneumoniae ATCC 33495; assay: MIC determination by microbroth dilution; assay type: cell-based; conditions: for MIC: ATCC33495
[8] = test system: Acinetobacter baumannii ATCC 19606; assay: MIC determination by microbroth dilution; assay type: cell-based; conditions: for MIC: ATCC19606
P. aeruginosa PAO1 = assay: MIC determination by microbroth dilution; assay type: cell-based, Pseudomonas aeruginosa; conditions: for MIC: Pseudomonas aeruginosa
[9] = test system: Strenotrophomonas maltophilia ATCC 13637; assay: MIC determination by microbroth dilution; assay type: cell-based
E. coli K12 = assay: MIC determination by microbroth dilution; assay type: cell-based, Escherichia coli; conditions: for MIC: Escherichia coli, K12
E. coli K12 ΔtolC = assay: microbe, parasite or virus in culture; assay type: cell-based; conditions: for MIC: Escherichia coli, read-out: MIC E. coli K12 ΔtolC
E. coli ribosomes = assay type: biochemical; conditions: for IC50, 50% inhibition of luciferase biosynthesis in S30 assay: E. coli S30 transcription/translation assay; for relative inhibitory activity on luciferase production: tested at 0.66 and 6.6 μM, FIG. 5
[10] = Mycobacterium tuberculosis, H37RV, 168 h, read-out: MIC

## CN[C@@H]1[C@H](O)[C@H](NC)C2O[C@]3(O)C(OC2[C@H]1O)O[C@H](C)C[C@H]3NC(=O)Cc1ccccc1 (stereo partly drawn) [Compound 1398, 3′-Dihydro-3′-deoxy-4(R)-phenylacetylamino spectinomycin Dihydrochloride]
M. tuberculosis H37Rv; [10]
  MIC: 6.1 µg/mL
[1]
  MIC: 100 µg/mL
[2]
  MIC: 50 µg/mL
[3]
  MIC: 100 µg/mL
E. faecalis ATCC 33186
  MIC: > 200 µg/mL
B. anthracis Sterne 34F2
  MIC: 100 µg/mL
[4]
  MIC: > 200 µg/mL
[5]
  MIC: > 200 µg/mL
[6]
  MIC: > 200 µg/mL
[7]
  MIC: > 200 µg/mL
[8]
  MIC: > 200 µg/mL
P. aeruginosa PAO1
  MIC: 100 µg/mL
[9]
  MIC: > 200 µg/mL
E. coli K12
  MIC: > 200 µg/mL
E. coli K12 ΔtolC
  MIC: 200 µg/mL
E. coli ribosomes
  IC50, 50% inhibition of luciferase biosynthesis in S30 assay: 0.78 µg/mL

## 3′-Dihydro-3′-deoxy-4(R)-dodecylamino spectinomycin Trihydrochloride [Compound 1421]
M. tuberculosis H37Rv
  MIC: 25 µg/mL
[1]
  MIC S. aureus: 200 µg/mL
[2]
  MIC S. pyogenes: 50 µg/mL
[3]
  MIC S. pneumoniae: 200 µg/mL
E. faecalis ATCC 33186
  MIC E. faecalis: 200 µg/mL
B. anthracis Sterne 34F2
  MIC B. anthracis 34F2: 200 µg/mL
[4]
  MIC B. cepcia: 50 µg/mL
[5]
  MIC P. mir: >200 µg/mL
[6]
  MIC P. vul: >200 µg/mL
[7]
  MIC K. pneu.: >200 µg/mL
[8]
  MIC A. bau.: 50 µg/mL
P. aeruginosa PAO1
  MIC P. aer.: >200 µg/mL
[9]
  MIC S. mal: 12.5 µg/mL
E. coli K12; E. coli K12
  MIC E. coli K12: 200 µg/mL
E. coli K12 ΔtolC; tolC knockout strain, defective multi-drug efflux pump
  MIC E. coli K12 ΔtolC: 50 µg/mL
E. coli ribosomes
  relative inhibitory activity on luciferase production: less active than 1329

## CN[C@@H]1[C@H](O)[C@H](NC)C2O[C@]3(O)C(OC2[C@H]1O)O[C@H](C)C[C@H]3NC(=O)Cc1cccc(F)c1F (stereo partly drawn) [Compound 1447, 3′-Dihydro-3′-deoxy-4(R)-(2,3-difluoro-phenyl)acetylamino spectinomycin Dihydrochloride]
M. tuberculosis H37Rv; [10]
  MIC: 50 µg/mL
[1]
  MIC: > 200 µg/mL
[2]
  MIC: 6.25 µg/mL
[3]
  MIC: 6.25 µg/mL
E. faecalis ATCC 33186
  MIC: 100 µg/mL
B. anthracis Sterne 34F2
  MIC: 100 µg/mL
[4]
  MIC: > 200 µg/mL
[5]
  MIC: > 200 µg/mL
[6]
  MIC: > 200 µg/mL
[7]
  MIC: 200 µg/mL
[8]
  MIC: > 200 µg/mL
P. aeruginosa PAO1
  MIC: > 200 µg/mL
[9]
  MIC: > 200 µg/mL
E. coli K12
  MIC: 200 µg/mL
E. coli K12 ΔtolC
  MIC: > 200 µg/mL
E. coli ribosomes
  IC50, 50% inhibition of luciferase biosynthesis in S30 assay: 0.22 µg/mL

## CN[C@@H]1[C@H](O)[C@H](NC)C2O[C@]3(O)C(OC2[C@H]1O)O[C@H](C)C[C@H]3NCc1cccc(OC)c1 (stereo partly drawn) [Compound 1423, 3′-Dihydro-3′-deoxy-4(R)-(3-methoxy)benzylamino spectinomycin Trihydrochloride]
M. tuberculosis H37Rv; [10]
  MIC: 200 µg/mL
[1]
  MIC: 200 µg/mL
[2]
  MIC: 25 µg/mL
[3]
  MIC: 200 µg/mL
E. faecalis ATCC 33186
  MIC: > 200 µg/mL
B. anthracis Sterne 34F2
  MIC: 200 µg/mL
[4]
  MIC: > 200 µg/mL
[5]
  MIC: > 200 µg/mL
[6]
  MIC: > 200 µg/mL
[7]
  MIC: > 200 µg/mL
[8]
  MIC: > 200 µg/mL
P. aeruginosa PAO1
  MIC: > 200 µg/mL
[9]
  MIC: > 200 µg/mL
E. coli K12
  MIC: 200 µg/mL
E. coli K12 ΔtolC
  MIC: 100 µg/mL
E. coli ribosomes
  relative inhibitory activity on luciferase production: inhibited well

## CN[C@@H]1[C@H](O)[C@H](NC)C2O[C@]3(O)C(OC2[C@H]1O)O[C@H](C)C[C@H]3NC(=O)Cc1c[nH]cn1 (stereo partly drawn) [Compound 1466, 3′-Dihydro-3′-deoxy-4(R)-(1H-imidazol-4-yl)acetylamino spectinomycin tetradrobromide]
M. tuberculosis H37Rv; [10]
  MIC: 6.25 µg/mL (≈ 14.2 µM)
[1]
  MIC: > 200 µg/mL
[2]
  MIC: 25 µg/mL (≈ 56.6 µM)
[3]
  MIC: 12.5 µg/mL (≈ 28.3 µM)
E. faecalis ATCC 33186
  MIC: > 200 µg/mL
B. anthracis Sterne 34F2
  MIC: > 200 µg/mL
[4]
  MIC: > 200 µg/mL
[5]
  MIC: > 200 µg/mL
[6]
  MIC: > 200 µg/mL
[7]
  MIC: > 200 µg/mL
[8]
  MIC: > 200 µg/mL
P. aeruginosa PAO1
  MIC: > 200 µg/mL
[9]
  MIC: > 200 µg/mL
E. coli K12
  MIC: 100 µg/mL (≈ 227 µM)
E. coli K12 ΔtolC
  MIC: 50 µg/mL (≈ 113 µM)
E. coli ribosomes
  IC50, 50% inhibition of luciferase biosynthesis in S30 assay: 0.57 µg/mL
